Consider 1 substance from patent US20110301079A1, “NEUROMEDIN U RECEPTOR AGONISTS AND USES THEREOF” (Instituto di Ricerche di Biologia Molecolare P. Angeletti …, priority 2007, published 2011).

In experiment [1] the test system is wild-type, Nmur1 knockout, Nmur2 knockout and Nmur1/Nmur2 double knockout mice. Put plainly: Acute feeding study in wild-type and Nmur knockout mice. The experiment is classed as in vivo. The method, then:
(§1) Ad libitum fed male diet-induced obese mice obtained from Taconic Farms were weighed and dosed either i.p. or s.c. with NMS or NMU at about 30 minutes prior to the onset of the dark phase of the light cycle and provided with a pre-weighed aliquot of high fat diet (D12492: 60% kcal from fat: Research Diets, Inc.), which was then weighed two and 18 hours after the onset of the initial dark phase. Mice were weighed at the 18 hour (overnight) time point.
NMUR1 knockout (Nmur1−/−) mice were generated using standard homologous recombination techniques. Nmur1 mice were subsequently transferred to Taconic Farms where they were either maintained on a 75% C57BL/6×25% 129S6/SvEv mixed genetic background or backcrossed 6 generations to C57BL/6. NMUR2 knockout (Nmur2−/−) mice were licensed from Deltagen Inc., San Mateo, Calif. and subsequently transferred to Taconic Farms were they were either maintained on a 75% C57BL/6×25% 129/OlaHsd mixed genetic background or backcrossed for 7 generations to C57BL/6. NMUR1 and NMUR2 double knockout (Nmur1&2−/−) mice were generated by crossing N6 Nmur1−/− mice to N7 Nmur2−/− mice. Mice were individually housed in Tecniplast cages in a conventional SPF facility. Mice were initially maintained on a regular chow diet and then early in their life were switched to a high fat diet (D12492) with ad libitum access to water in a 12-h light/12-h dark cycle.
The anorectic effects of NMS1 were mediated by both the NMUR1 and NMUR2 receptors. […] Effects on food intake (FIG. 9A) and body weight (FIG. 9B) are shown.

The next experiment deals with T1, mouse NMUR2 (Mus musculus, UniProt Q8BZ39).
T1 construct: expressed in transfected cells; host or cells: FLP-In CHO cells and HEK-293 FLP-In cells (pcDNA5)
Briefly: FLIPR calcium mobilization assay, mouse NMUR2 cell line. The experiment is classed as cell-based. An excerpt: (§2) Human, mouse or rat cDNAs encoding NMUR1 or NMUR2 (as described in Howard et al. Nature 406: 70-74 (2000) were subcloned in pcDNA5 (Invitrogen) and transfected into FLP-In CHO cells and HEK-293 FLP-In cells purchased from Invitrogen (Carlsbad, Calif.) using lipofectamine (Invitrogen). The Flp-In system allows integration and expression of a particular gene of interest at a specific genomic location utilizing the Flp recombinase from yeast. The transfected cells were selected by growth in medium containing 200 μg/mL hygromycin (Invitrogen). Populations were frozen at early passage numbers, and these stocks were used for further studies. Stable clones that expressed the mRNAs were identified functionally by FLIPR as well as by RT-PCR. […] Two different rodent NMUR1 cell lines were thus generated: one with the codon as predicted from the genomic databases and another cell line with an engineered methionine (ATG) as the start codon. The dog NMU receptors were also cloned from intestine RNA (NMUR1) and brain (NMUR2) and stable cell lines were generated as used for the human and rodent cell lines. […] To ensure high levels of expression in a heterologous system, a dog NMUR1 cell line was generated that contains an ATG as the start codon. Additionally, stable cell lines expressing the human receptors were generated in HEK-293/aeq 17 cells which stably express the aequorin gene under the CMV promoter. The human NMUR2 cDNA was cloned into pcDNA3.1 and human NMUR1 was subcloned into pIRES-puro (Clontech, Mountain View, Calif.), after transfection cells were selected in media containing G418 and either hygromycin (NMUR2) or puromycin (NMUR1).
(§3) The NMU receptors signal primarily through Gαq/11 proteins; therefore calcium mobilization assays can be utilized for functional activity.
(§4) Stable cell lines expressing human and or rodent NMUR1 or human NMUR2 receptors are plated at a density of 12,000 cells per well overnight on poly-lysine coated 384-well black-walled plates. The following day, the media is removed from the plates and the cells were subsequently loaded with Fluo-3 (Molecular Probes), a calcium sensitive dye, diluted in FLIPR buffer (1× Hank's buffered saline containing 20 mM HEPES, 0.1% BSA, 2.5 mM probenecid (Sigma) and 1.6 mM TR40). All reagents are from Invitrogen unless otherwise noted. Peptide stocks are resuspended in DMSO at a stock concentration of 2 mM and diluted in FLIPR buffer on the day of the experiment to a 4 μM working stock solution.
(§5) After a 90 minute incubation at room-temperature, cell plates are loaded onto a FLIPR (Molecular Devices) to monitor cellular fluorescence (excitation=488 nm; emission=540 nm) before and after compound/peptide addition. Eight to twelve point dose responses are tested on NMUR-expressing cell lines using FLIPR with 1 μM peptide as the highest dose. The response after peptide addition is taken as the maximum fluorescence units minus the fluorescence immediately prior to stimulation for each well. EC50 values are calculated using GraphPad Prism (San Diego, Calif.) software.
(§6) Percent activity refers to the maximum response at 1 μM compared to the human NMU-25 response at the same concentration.

Experiment [2] has as its system male diet-induced obese mice. Put plainly: Acute feeding study with NMU and NMS. The class given is in vivo. The method, then: as §1
The subject of another experiment is dog NMUR1-ATG. Briefly: FLIPR calcium mobilization assay, dog NMUR1-ATG cell line. The experiment is classed as cell-based.
From the text: as §2, §3, §4, §5, §6

Another experiment concerns the target T2, mouse NMUR1-ATG (Mus musculus, UniProt O55040).
T2 construct: expressed in transfected cells; host or cells: FLP-In CHO cells and HEK-293 FLP-In cells (pcDNA5)
T2 sequence (O55040 1-428): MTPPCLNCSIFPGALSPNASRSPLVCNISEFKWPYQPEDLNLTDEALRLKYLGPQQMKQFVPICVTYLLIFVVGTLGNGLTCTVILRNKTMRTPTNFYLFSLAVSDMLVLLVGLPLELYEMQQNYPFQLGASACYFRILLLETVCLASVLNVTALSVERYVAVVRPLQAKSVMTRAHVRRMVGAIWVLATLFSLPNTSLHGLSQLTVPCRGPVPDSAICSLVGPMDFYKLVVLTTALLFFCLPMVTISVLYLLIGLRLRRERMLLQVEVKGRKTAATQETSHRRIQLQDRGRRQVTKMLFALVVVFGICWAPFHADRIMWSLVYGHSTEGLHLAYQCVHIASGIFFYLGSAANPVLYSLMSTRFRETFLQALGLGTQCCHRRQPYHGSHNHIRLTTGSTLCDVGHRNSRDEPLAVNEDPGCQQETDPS
Briefly: FLIPR calcium mobilization assay, mouse NMUR1-ATG cell line. The class given is cell-based.
From the text: as §2, §3, §4, §5, §6

The target in a further experiment is T3, human NMUR2 (Homo sapiens, UniProt Q9GZQ4).
T3 construct: expressed in transfected cells; host or cells: FLP-In CHO cells and HEK-293 FLP-In cells (pcDNA5)
Briefly: FLIPR calcium mobilization assay, human NMUR2-expressing cell line. The experiment is classed as cell-based.
From the text: as §2, §3, §4, §5, §6

Where [3] appears, read: maximum response at 1 μM compared to the human NMU-25 response at the same concentration.

T3 sequence (Q9GZQ4 whole entry): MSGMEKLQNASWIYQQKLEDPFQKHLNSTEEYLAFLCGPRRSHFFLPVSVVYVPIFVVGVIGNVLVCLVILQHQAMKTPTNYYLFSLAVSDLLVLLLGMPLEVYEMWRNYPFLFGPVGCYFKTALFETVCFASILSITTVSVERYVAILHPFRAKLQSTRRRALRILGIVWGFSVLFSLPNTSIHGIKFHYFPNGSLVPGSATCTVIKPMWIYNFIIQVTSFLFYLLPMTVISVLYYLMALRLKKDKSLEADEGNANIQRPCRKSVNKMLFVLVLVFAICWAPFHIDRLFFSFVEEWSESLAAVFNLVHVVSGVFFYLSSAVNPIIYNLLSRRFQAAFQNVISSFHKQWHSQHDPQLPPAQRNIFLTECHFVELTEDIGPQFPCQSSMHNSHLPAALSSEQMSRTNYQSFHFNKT
T1 sequence (Q8BZ39 whole entry): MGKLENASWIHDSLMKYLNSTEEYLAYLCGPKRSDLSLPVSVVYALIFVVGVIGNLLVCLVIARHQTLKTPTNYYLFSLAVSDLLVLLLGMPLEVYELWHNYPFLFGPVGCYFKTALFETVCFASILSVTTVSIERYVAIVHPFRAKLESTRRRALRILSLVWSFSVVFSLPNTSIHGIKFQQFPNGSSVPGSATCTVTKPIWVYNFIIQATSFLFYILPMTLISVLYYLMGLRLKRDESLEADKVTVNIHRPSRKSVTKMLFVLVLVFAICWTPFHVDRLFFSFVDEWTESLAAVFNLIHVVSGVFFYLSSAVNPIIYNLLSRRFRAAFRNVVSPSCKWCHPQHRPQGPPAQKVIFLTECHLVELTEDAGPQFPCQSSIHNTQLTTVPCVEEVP

“H-ILQRGSGTAAVDFTKKDHTATWGRPFFLFRPRN-NH2 [NMS, reference compound]”: the food intake result in experiment [1] (Nmur1 knockout mice, highest dose tested) is “modest but significant effect”; in experiment [1] (acute peripheral administration, Nmur1 knockout mice) it was “not in Nmur1 knockout mice”; in experiment [1] (acute peripheral administration, Nmur2 knockout mice), “significantly reduced”; in experiment [1] (acute peripheral administration, wild-type mice) it was “significantly reduced”; in experiment [2] (acute peripheral administration (i.p. or s.c.), FIG. 1A), “significantly reduced”. The EC50 came out at 7.8 nM at mouse NMUR2 (mouse NMUR2, FLIPR); 4.4 nM in the experiment with dog NMUR1-ATG (FLIPR); 7 nM at mouse NMUR1-ATG (FLIPR); 12.6 nM on human NMUR2 (human NMUR2, FLIPR). For the same substance, the “% Activity” value was 111% at mouse NMUR2 (mouse NMUR2, maximum response at 1 μM compared to the human NMU-25 response at the same concentration); 100% in the experiment with dog NMUR1-ATG (setting [3]); 102% on mouse NMUR1-ATG (setting [3]); 107% at human NMUR2 (human NMUR2, maximum response at 1 μM compared to the human NMU-25 response at the same concentration). Further, the “anorectic effects compared with NMU” value in experiment [2] (acute peripheral administration) is on record as “appeared to be greater than the anorectic effects observed with NMU”. The body weight result in experiment [2] (acute peripheral administration, 18 hour (overnight), FIG. 1B) is reported as “significantly reduced”.
